Assay results reported in patent US9675571B2, “Inhibitors of indoleamine 2,3-dioxygenase (IDO)” (BRISTOL-MYERS SQUIBB COMPANY, priority 2013, dated 2017).

Biological target: Human IDO1 (Homo sapiens (Human), UniProt P14902)
Assay: IDO Kynurenine Assay with Human IDO1/HEK293 Cells
Type: cell-based
Settings: 20 hours incubation, kynurenine detected with Ehrlich reagent, absorbance at 490 nm, read-out: HEK Human IDO-1 IC50
Procedure: Human IDO1/HEK293 cells were seeded at 10,000 cells per 50 uL per well with RPMI/phenol red free media contains 10% FBS in a 384-well black wall clear bottom tissue culture plate (Matrix Technologies LLC) 125 nL of certain concentration of compound was then added to each well using ECHO liquid handling systems. The cells were incubated for 20 hours in 37° C. incubator with 5% CO2.
The compound treatments were stopped by adding Trichloroacetic Acid (Sigma-Aldrich) to a final concentration at 0.2%. The cell plate was further incubated at 50° C. for 30 minute. The equal volume supernatant (20 uL) and 0.2% (w/v) Ehrlich reagent (4-dimethylaminobenzaldehyde, Sigma-Aldrich) in glacial acetic acid were mixed in a new clear bottom 384-well plate. This plate was then incubated at room temperature for 30 minute. The absorbance at 490 nm was measured on Envision plate reader.
Compound IC50 values were calculated using the counts of 500 nM of a reference standard treatment as one hundred percent inhibition, and counts of no compound but DMSO treatment as zero percent inhibition.

Sequence of Human IDO1 (P14902 whole entry): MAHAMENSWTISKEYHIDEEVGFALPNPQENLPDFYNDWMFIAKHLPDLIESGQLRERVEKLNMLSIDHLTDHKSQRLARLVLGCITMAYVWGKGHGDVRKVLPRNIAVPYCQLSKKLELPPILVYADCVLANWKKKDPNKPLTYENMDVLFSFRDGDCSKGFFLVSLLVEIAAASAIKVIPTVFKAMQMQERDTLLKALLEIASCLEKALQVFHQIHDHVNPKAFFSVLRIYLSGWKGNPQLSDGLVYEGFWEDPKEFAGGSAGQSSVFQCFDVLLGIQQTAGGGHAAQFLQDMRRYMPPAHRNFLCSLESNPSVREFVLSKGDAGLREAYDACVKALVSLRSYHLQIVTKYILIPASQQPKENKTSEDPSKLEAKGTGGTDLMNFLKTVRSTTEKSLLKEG

| IC50 | Structure (SMILES) |
| --- | --- |
| 88 nM | COCCN(Cc1ccc(Cl)cc1)c1ccc([C@H]2C[C@H]2C(=O)O)cc1NC(=O)Nc1ccc(C)cc1 (single isomer, unassigned) [Example 43] |
| 8 nM | COC(=O)[C@@H]1C[C@@H]1c1ccc(N(CC(C)C)CC(C)C)c([N+](=O)[O-])c1 [Example 1J, (1R,2S)-methyl 2-(4-(diisobutylamino)-3-nitrophenyl) cyclopropanecarboxylate] |
| 941 nM | CC(C)CN(CC(C)C)c1ccc([C@H]2C[C@H]2C(=O)O)cc1NC(=O)Nc1ccc(C(F)(F)F)cc1 [Example 5, (1R,2S)-2-(4-(diisobutylamino)-3-(3-(4-(trifluoromethyl)phenyl)ureido)phenyl)cyclopropanecarboxylic acid] |
| 148 nM | CC(C)CN(CC(C)C)c1ccc([C@H]2C[C@H]2C(=O)O)cc1NC(=O)Nc1ccc(Cl)c(Cl)c1 [Example 6, (1R,2S)-2-(3-(3-(3,4-dichlorophenyl)ureido)-4-(diisobutylamino)phenyl) cyclopropanecarboxylic acid] |
| 97 nM | CC(C)CN(CC(C)C)c1ccc([C@H]2C[C@H]2C(=O)O)cc1NC(=O)Nc1ccccc1Cl [Example 9, (1R,2S)-2-(3-(3-(2-chlorophenyl)ureido)-4-(diisobutylamino)phenyl) cyclopropanecarboxylic acid] |
| 86 nM | Cc1ccc(NC(=O)Nc2cc([C@H]3C[C@H]3C(=O)O)ccc2N(CC(C)C)CC(C)C)c(Cl)c1 [Example 14, (1R,2S)-2-(3-(3-(2-chloro-4-methylphenyl)ureido)-4-(diisobutylamino)phenyl) cyclopropanecarboxylic acid] |
| 541 nM | CC(C)CN(CC(C)C)c1ccc([C@H]2C[C@H]2C(=O)O)cc1NC(=O)Nc1ccc(CC#N)cc1 [Example 15, (1R,2S)-2-(3-(3-(4-(cyanomethyl)phenyl)ureido)-4-(diisobutylamino)phenyl) cyclopropanecarboxylic acid] |
| 442 nM | Cc1cccc(NC(=O)Nc2cc([C@@H]3C[C@@H]3C(=O)O)ccc2N(CC(C)C)CC(C)C)c1 [Example 19, (1S,2R)-2-(4-(diisobutylamino)-3-(3-(m-tolyl)ureido)phenyl) cyclopropanecarboxylic acid] |
| 61 nM | CC(C)CN(CC(C)C)c1ccc([C@@H]2C[C@@H]2C(=O)O)cc1NC(=O)Nc1ccc(C2CC2)cc1 [Example 20, (1S,2R)-2-(3-(3-(4-cyclopropylphenyl)ureido)-4-(diisobutylamino)phenyl) cyclopropanecarboxylic acid] |
| 6 nM | Cc1cc(NC(=O)Nc2cc([C@H]3C[C@H]3C(=O)O)ccc2N(CC(C)C)CC(C)C)on1 [Example 30, (1R,2S)-2-(4-(diisobutylamino)-3-(3-(3-methylisoxazol-5-yl)ureido)phenyl)cyclopropanecarboxylic acid] |
| 4 nM | Cc1cc(NC(=O)Nc2cc([C@@H]3C[C@@H]3C(=O)O)ccc2N(CC(C)C)CC(C)C)on1 [Example 31, (1S,2R)-2-(4-(diisobutylamino)-3-(3-(3-methylisoxazol-5-yl)ureido)phenyl)cyclopropanecarboxylic acid] |
| 2 nM | CC(C)CN(CC(C)C)c1ccc([C@H]2C[C@H]2C(=O)O)cc1NC(=O)Nc1cc(C2CC2)no1 [Example 34, (1R,2S)-2-(3-(3-(3-cyclopropylisoxazol-5-yl)ureido)-4-(diisobutylamino)phenyl)cyclopropanecarboxylic acid] |
| 7 nM | CC(C)CN(CC(C)C)c1ccc([C@H]2C[C@H]2C(=O)O)cc1NC(=O)Nc1cc(C(F)(F)F)no1 [Example 36, (1R,2S)-2-(4-(diisobutylamino)-3-(3-(3-(trifluoromethyl)isoxazol-5-yl)ureido)phenyl)cyclopropanecarboxylic acid] |
| 7 nM | CC(C)CN(CC(C)C)c1ccc([C@@H]2C[C@@H]2C(=O)O)cc1NC(=O)Nc1cc(C(F)(F)F)no1 [Example 37, (1S,2R)-2-(4-(diisobutylamino)-3-(3-(3-(trifluoromethyl)isoxazol-5-yl)ureido)phenyl)cyclopropanecarboxylic acid] |
| 21 nM | Cc1ccc(CC(=O)Nc2cc([C@H]3C[C@H]3C(=O)O)ccc2N(CC(C)C)CC(C)C)cc1 [Example 60, (1R,2S)-2-(4-(diisobutylamino)-3-(2-(p-tolyl)acetamido)phenyl)cyclopropanecarboxylic acid] |
| 262 nM | Cc1cc(CC(=O)Nc2cc([C@@H]3C[C@@H]3C(=O)O)ccc2N(CC(C)C)CC(C)C)on1 [Example 63, (1S,2R)-2-(4-(diisobutylamino)-3-(2-(3-methylisoxazol-5-yl)acetamido)phenyl) cyclopropanecarboxylic acid] |
| 23 nM | Cc1cc(NC(=O)Nc2cc([C@@H]3C[C@@H]3C(=O)O)ccc2N(CC(C)C)CC(C)C)no1 [Example 67, (1S,2R)-2-(4-(diisobutylamino)-3-(3-(5-methylisoxazol-3-yl)ureido)phenyl)cyclopropanecarboxylic acid] |
| 519 nM | CCOC(=O)Nc1ccc(NC(=O)Nc2cc([C@@H]3C[C@@H]3C(=O)O)ccc2N(CC(C)C)CC(C)C)cc1 [Example 71, (1S,2R)-2-(4-(diisobutylamino)-3-(3-(4-((ethoxycarbonyl)amino)phenyl)ureido)phenyl)cyclopropanecarboxylic acid] |
| 200 nM | CC(C)CN(CC(C)C)c1ccc([C@@H]2C[C@@H]2C(=O)O)cc1NC(=O)Nc1ccc(OCC(F)(F)F)cc1 [Example 72, (1S,2R)-2-(4-(diisobutylamino)-3-(3-(4-(2,2,2-trifluoroethoxy)phenyl)ureido)phenyl)cyclopropanecarboxylic acid] |
| 527 nM | Cc1ccc(NC(=O)Nc2cc([C@H]3C[C@H]3C(=O)O)ccc2N(CCCC(F)(F)F)C2CCCCC2)cc1 [Example 73, (1R,2S)-2-(4-(cyclohexyl(4,4,4-trifluorobutyl)amino)-3-(3-(p-tolyl)ureido)phenyl)cyclopropanecarboxylic acid] |
| 787 nM | O=C(Nc1cncnc1)Nc1cc([C@H]2C[C@H]2C(=O)O)ccc1N(CCCC(F)(F)F)C1CCCCC1 [Example 75] |
| 338 nM | Cc1ccc(NC(=O)Nc2cc([C@@H]3C[C@@H]3C(=O)O)ccc2N(CCCC(F)(F)F)C2CCCCC2)cc1 [Example 76, (1S,2R)-2-(4-(cyclohexyl(4,4,4-trifluorobutyl)amino)-3-(3-(p-tolyl)ureido)phenyl)cyclopropanecarboxylic acid] |
| 64 nM | Cc1ncc(NC(=O)Nc2cc([C@@H]3C[C@@H]3C(=O)O)ccc2N(CC(C)C)CC(C)C)cn1 [Example 77, (1S,2R)-2-(4-(diisobutylamino)-3-(3-(2-methylpyrimidin-5-yl)ureido)phenyl)cyclopropanecarboxylic acid] |
| 994 nM | O=C(Nc1cncnc1)Nc1cc([C@H]2C[C@H]2C(=O)O)ccc1N(CCC(F)(F)F)C1CCCCC1 [Example 87, (1R,2S)-2-(4-(cyclohexyl(3,3,3-trifluoropropyl)amino)-3-(3-(pyrimidin-5-yl)ureido)phenyl)cyclopropanecarboxylic acid] |
| 97 nM | CC(C)CN(CC(C)C)c1ccc([C@H]2C[C@H]2C(=O)O)cc1NC(=O)Cc1ccc(F)cc1 [Example 117, (1R,2S)-2-(4-(diisobutylamino)-3-(2-(4-fluorophenyl)acetamido)phenyl)cyclopropanecarboxylic acid] |
| 126 nM | Cc1ccc(CC(=O)Nc2cc([C@H]3C[C@H]3C(=O)O)ccc2N(CC(C)C)CC(C)C)cn1 [Example 118, (1R,2S)-2-(4-(diisobutylamino)-3-(2-(6-methylpyridin-3-yl)acetamido)phenyl)cyclopropanecarboxylic acid] |
| 0.5 nM | Cc1cc(NC(=O)Nc2cc([C@H]3C[C@H]3C(=O)O)ccc2N(CC(C)C)C2CCCCC2)on1 [Example 129, (1R,2S)-2-(4-(cyclohexyl(isobutyl)amino)-3-(3-(3-methylisoxazol-5-yl)ureido)phenyl)cyclopropanecarboxylic acid] |
| 2 nM | COC(=O)C1CC1c1ccc(N(CC(C)C)CC(C)C)c([N+](=O)[O-])c1 (stereo not drawn) [ent-1J] |
